The values that follow come from paper PMC3517478 (BMC Neurology, 2012).

Experiment [1] addresses T1, human α1-GlyR (WT) expressed in HEK 293 cells (Homo sapiens, UniProt P23415).
T1 sequence (P23415 29-457): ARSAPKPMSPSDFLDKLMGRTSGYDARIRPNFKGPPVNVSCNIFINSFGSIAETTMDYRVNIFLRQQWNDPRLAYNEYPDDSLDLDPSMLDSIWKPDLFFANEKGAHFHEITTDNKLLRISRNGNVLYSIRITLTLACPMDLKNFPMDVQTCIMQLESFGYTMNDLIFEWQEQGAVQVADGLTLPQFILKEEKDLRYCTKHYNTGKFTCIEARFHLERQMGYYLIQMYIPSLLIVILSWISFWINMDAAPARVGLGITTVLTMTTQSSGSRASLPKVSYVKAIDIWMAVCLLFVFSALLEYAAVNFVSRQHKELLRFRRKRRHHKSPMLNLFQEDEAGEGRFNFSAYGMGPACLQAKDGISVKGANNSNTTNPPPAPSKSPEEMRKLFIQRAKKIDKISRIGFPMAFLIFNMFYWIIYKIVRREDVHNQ
Put plainly: Whole-cell patch-clamp, positive allosteric modulation of glycine (EC20) induced currents. Type of experiment: cell-based. Also noted: expressed in transfected cells; host or cells: HEK 293 (transient, electroporation; pCIS2 vector; co-transfected EGFP as a separate marker). As for the experimental part:
(§1) Drug-containing vials were vigorously vortexed for 30min.
(§2) A new cell was used for each protocol and at least four different experiments were performed for each condition. The concentration of the diluent EtOH corresponding to the highest drug concentration used was 17150 μM.
(§3) Currents were filtered at 2 kHz.
Currents were normalized to their own maximum response.
Background: The patch-clamp technique gives a direct electrical read-out from membranes.

Experiment [2] concerns the target T2, human α1R271L-GlyR expressed in HEK 293 cells (Homo sapiens, UniProt P23415, R299L).
T2 sequence (P23415 29-457 R299L): T1 sequence (P23415 29-457) with R271L
Briefly: Whole-cell patch-clamp, direct activation in the absence of glycine. Type of experiment: cell-based. Also noted: expressed in transfected cells; host or cells: HEK 293 (transient, electroporation; pcDNA1amp vector). The settings on record: R271L, 0.01-1000 μM. As for the experimental part:
as §1, §2, §3

The subject of the next experiment is WT glycine receptor. The settings on record: on cell mode, 4 s drug application; cited from earlier work.
The test system of another experiment is rat alpha 1 GlyR. The settings on record: rat alpha 1 GlyR in HEK293; cited from earlier work.

Positions count from the first letter of the chain named.

Broadly, the EC50 is the concentration at which the effect is half-maximal. In the case of “4-chloro-2,6-dimethylphenol [4-chloropropofol]”, the “increased potency to positively modulate glycine induced chloride currents in comparison to propofol” value in experiment [1] (WT glycine receptors, propofol value from ref 21) is on record as “more than 1000 fold”. For the same compound, in experiment [1] (WT, EC20 glycine 20 μM), the “positive allosteric modulation nH ± SEM” value was 2.0 ± 2.8. Moreover, the EC50 in experiment [1] (WT, co-applied with sub-saturating (EC20) glycine 20 μM, read-out: positive allosteric modulation EC50 ± SEM) is 0.08 ± 0.02 nM. Moreover, in experiment [1] (WT, maximal positive allosteric modulation, EC20 glycine 20 μM), the “positive allosteric modulation, potentiation [% of peak current amplitude] ± SEM” value is 269 ± 88%. Further, the direct activation result in experiment [2] is “completely insensitive”.

As for `NCC(=O)O` [glycine], the rise time with WT glycine receptor is on record as 0.4 ms. Moreover, in the experiment on rat alpha 1 GlyR, the “Hill slope nH” value is given as 3.3.
